Laboratory results from patent US11192921B2 (priority 2017, dated 2021).
Several values for one entry are separate records, joined by “and”; a condition that tells them apart may be missing. Equal entries are not always repeated. Where two headings read alike, the source gives them in different places. Marks after values point to notes of the source that are not given here.

Key:
[1] = tested on: Female Kunming mice; format: in vivo
[2] = tested on: Kunming mice; format: in vivo
[3] = tested on: Kunming mice; conditions: mouse, in vivo
[4] = tested on: male BALB/c mice; test: cancer-induced pain (CIP) model, thermosensitive test; format: in vivo
Description: Influence of Analgesic Polypeptides on Neuralgia in a Cancer-Induced Pain (CIP) Model
A number of male BALB/c mice each weighing 25-30 g were used.
Von Fery monofilament; a microsyringe, 5 mg/mL solutions of polypeptides I, II and II I; normal saline.
(§1) BALB/c mice were taken, and the right sciatic nerve was exposed; ascites containing 5×10^4 Meth A sarcoma cells were injected into the proximal nerve near the sciatic nerve trochanter far from the tendon branch of the posterior biceps, the wound was closed, and the same volume of normal saline was injected into the left side by performing a sham operation.
1.3.1 Thermosensitive Test
On the 4th, 7th, 10th and 14th days after inoculation, the latency of foot lifting caused by heat radiation stimulation to animals was observed, and the heat radiation intensity was adjusted to cause the latency of foot lifting of normal mice to be (10±2) s.
All data was expressed as M±SD and subjected to one-way ANOVA.

[5] = tested on: male BALB/c mice; test: cancer-induced pain (CIP) model, gross behavior; format: in vivo; conditions: 14th day after inoculation
Description: as §1
On the 4th, 7th, 10th and 14th days after inoculation, spontaneous pain and foot drop and the like occurred before the occurrence of thermal sensitivity and mechanical pain sensitivity behaviors, […]

[6] = tested on: SD rats; test: pain threshold of trigeminal nerve (trigeminal neuralgia model); format: in vivo; conditions: for highest pain threshold on the operative side / pain threshold on the opposite side: 3 h after injection; for Pain threshold: intraperitoneal
[7] = tested on: Female Kunming mice
[8] = tested on: Female Kunming mice; remark: listed apart in the source
[9] = tested on: Female Kunming mice; remark: listed apart in the source
[10] = 50 μg/kg, injected subcutaneously
[11] = 100 μg/kg, injected subcutaneously

Q: With “Gly-Ser-Cys-Ser-Thr-Pro-Pro-d{Cys}-Val-Leu-Tyr-Ser [Polypeptide I]” as the substance, how does the Pain threshold ([1]; 0 min) read?
A: 28.32 ± 0.21 s

Q: And the Pain threshold ([1]; mouse, in vivo, ip)?
A: 25.21 ± 0.42^∧∧ s and 31.32 ± 0.32*^∧ s and 24.23 ± 0.42^∧ s and 21.39 ± 0.45^∧ s and 29.23 ± 0.42 s and 23.44 ± 0.24 s

Q: What about the “heat thresholds of mice compared with the normal saline negative control group” value ([1]; mouse, in vivo, ip) of the same substance?
A: effectively increase the heat thresholds of mice

Q: What about the “Pain threshold (tail flick)” value ([2]; 0 min) of the same substance?
A: 2.31 ± 0.12 s

Q: What about the “Pain threshold (tail flick)” value ([2]; 15 min) of the same substance?
A: 2.12 ± 0.21^∧∧ s

Q: What about the “Pain threshold (tail flick)” value ([2]; 30 min) of the same substance?
A: 2.12 ± 0.12 s

Q: What about the “Pain threshold (tail flick)” value ([2]; 45 min) of the same substance?
A: 3.22 ± 0.12^∧ s

Q: And the “Pain threshold (tail flick)” value ([2]; 60 min)?
A: 2.12 ± 0.21*^∧ s

Q: What about the “Pain threshold (tail flick)” value ([2]; 75 min) of the same substance?
A: 2.12 ± 0.12 s

Q: What about the “Pain threshold (tail flick)” value ([2]; 90 min) of the same substance?
A: 2.32 ± 0.14 s

Q: What about the “difference from the conotoxin group during a time period (^^P<0.01)” value ([2]; mouse, in vivo) of the same substance?
A: significantly different from the conotoxin group

Q: And the “analgesic effects in formalin-induced pain experiments” value [3]?
A: good analgesic effects

Q: What about the “cumulative foot licking time, Phase I” value [3] of the same substance?
A: 46.44 ± 10.28*^

Q: And the “cumulative foot licking time, Phase II” value [3]?
A: 42.10 ± 14.32*^

Q: And the “increase of the latency of foot lifting” value ([4]; 14th day after inoculation)?
A: particularly significant

Q: What about the “Latency of foot lifting before administration” value ([4]; heat radiation stimulation, before administration) of the same substance?
A: 10.56 ± 0.89

Q: And the “Latency (D) of foot lifting after administration” value (“Latency (D) of foot lifting” below) ([4]; heat radiation stimulation, day 4)?
A: 10.01 ± 0.23

Q: What about the “Latency (D) of foot lifting” value ([4]; heat radiation stimulation, day 7) of the same substance?
A: 9.26 ± 0.99

Q: And the “Latency (D) of foot lifting” value ([4]; heat radiation stimulation, day 10)?
A: 8.56 ± 0.23

Q: And the “Latency (D) of foot lifting” value ([4]; heat radiation stimulation, day 14)?
A: 7.44 ± 0.85

Q: What about the “left foot lifting behavior” value [5] of the same substance?
A: obviously observed

Q: What about the animal reaction thresholds ([6]; 50 μg/kg and 100 μg/kg, injected subcutaneously) of the same substance?
A: significantly increased

Q: What about the “time the pain thresholds lasted” value [6, 10] of the same substance?
A: 1 h

Q: And the “highest pain threshold on the operative side” value [6, 10]?
A: 2.3 ± 0.5 g

Q: What about the “pain threshold on the opposite side” value [6, 10] of the same substance?
A: 1.2 ± 0.2 g

Q: And the “time the effect on the operative side lasted” value [6, 11]?
A: about 8 h

Q: And the “highest pain threshold on the operative side” value [6, 11]?
A: 7.4 ± 0.9 g

Q: What about the “pain threshold on the opposite side” value [6, 11] of the same substance?
A: 3.2 ± 1.3 g

Q: And the pain threshold change ([6]; 300 μg/kg, subcutaneously)?
A: not significantly increased

Q: And the Pain threshold ([6]; Dose 50 (μg/kg), 0 h)?
A: 25.44 ± 0.23 s

Q: And the Pain threshold ([6]; Dose 50 (μg/kg), 1 h)?
A: 26.35 ± 0.65 s

Q: And the Pain threshold ([6]; Dose 50 (μg/kg), 2 h)?
A: 26.89 ± 0.23 s

Q: And the Pain threshold ([6]; Dose 50 (μg/kg), 3 h)?
A: 27.56 ± 0.56 s

Q: And the Pain threshold ([6]; Dose 50 (μg/kg), 4 h)?
A: 26.45 ± 0.78 s

Q: And the Pain threshold ([6]; Dose 50 (μg/kg), 5 h)?
A: 25.89 ± 0.12 s

Q: What about the Pain threshold ([6]; Dose 100 (μg/kg), 0 h) of the same substance?
A: 25.11 ± 0.56 s

Q: What about the Pain threshold ([6]; Dose 100 (μg/kg), 1 h) of the same substance?
A: 27.86 ± 0.95 s

Q: What about the Pain threshold ([6]; Dose 100 (μg/kg), 2 h) of the same substance?
A: 28.12 ± 0.65 s

Q: And the Pain threshold ([6]; Dose 100 (μg/kg), 3 h)?
A: 29.46 ± 0.61 s

Q: What about the Pain threshold ([6]; Dose 100 (μg/kg), 4 h) of the same substance?
A: 26.43 ± 0.62 s

Q: And the Pain threshold ([6]; Dose 100 (μg/kg), 5 h)?
A: 25.68 ± 0.33 s

Q: What about the Pain threshold ([6]; Dose 300 (μg/kg), 0 h) of the same substance?
A: 26.65 ± 0.41 s

Q: What about the Pain threshold ([6]; Dose 300 (μg/kg), 1 h) of the same substance?
A: 30.56 ± 0.11 s

Q: And the Pain threshold ([6]; Dose 300 (μg/kg), 2 h)?
A: 30.53 ± 0.62 s

Q: And the Pain threshold ([6]; Dose 300 (μg/kg), 3 h)?
A: 29.56 ± 0.12 s

Q: And the Pain threshold ([6]; Dose 300 (μg/kg), 4 h)?
A: 28.15 ± 0.32 s

Q: What about the Pain threshold ([6]; Dose 300 (μg/kg), 5 h) of the same substance?
A: 27.15 ± 0.65 s

Q: And the “Movement distances of mice in open field tests” value ([7]; 1 h)?
A: 20.39 ± 1.21^

Q: What about the “Movement distances of mice in the center area in open field tests” value ([7]; 1 h) of the same substance?
A: 20.39 ± 1.21^

Q: What about the “Movement distances of mice in the peripheral area in open field tests” value ([7]; 1 h) of the same substance?
A: 20.39 ± 1.21^

Q: What about the “Number of entrances to the center area in open field tests” value (shortened to “Number of entrances to the center area”) ([7]; 1 h) of the same substance?
A: 20.39 ± 1.21^

Q: What about the “Number of entrances to the peripheral area in open field tests” value ([7]; 1 h) of the same substance?
A: 20.39 ± 1.21^

Q: What about the “Residence time in the center area in open field tests” value (“Residence time in the center area” below) ([7]; 1 h) of the same substance?
A: 20.39 ± 1.21^ s

Q: What about the “Residence time in the peripheral area in open field tests” value (“Residence time in the peripheral area” for short) ([7]; 1 h) of the same substance?
A: 20.39 ± 1.21^ s

Q: And the “Movement distances of mice in open field tests” value ([7]; 24 h)?
A: 18.99 ± 1.48 m

Q: What about the “Movement distances of mice in the center area in open field tests” value ([7]; 24 h) of the same substance?
A: 18.99 ±1.48 m

Q: And the “Movement distances of mice in the peripheral area in open field tests” value ([7]; 24 h)?
A: 18.99 ± 1.48 m

Q: And the “Number of entrances to the center area” value ([7]; 24 h)?
A: 18.99 ± 1.48

Q: And the “Number of entrances to the peripheral area in open field tests” value ([7]; 24 h)?
A: 18.99 ± 1.48

Q: What about the “Residence time in the center area” value ([7]; 24 h) of the same substance?
A: 18.99 ± 1.48 s

Q: And the “Residence time in the peripheral area” value ([7]; 24 h)?
A: 18.99 ± 1.48 s

Q: What about the “Movement distances of mice in open field tests” value ([7]; Time 0) of the same substance?
A: 20.57 ± 1.65 m

Q: What about the “Movement distances of mice in the center area in open field tests” value ([7]; Time 0) of the same substance?
A: 20.57 ±1.65 m

Q: And the “Movement distances of mice in the peripheral area in open field tests” value ([7]; Time 0)?
A: 20.57 ± 1.65 m

Q: What about the “Number of entrances to the center area” value ([7]; Time 0) of the same substance?
A: 20.57 ± 1.65

Q: What about the “Number of entrances to the peripheral area in open field tests” value ([7]; Time 0) of the same substance?
A: 20.57 ± 1.65

Q: And the “Residence time in the center area” value ([7]; Time 0)?
A: 20.57 ± 1.65 s

Q: What about the “Residence time in the peripheral area” value ([7]; Time 0) of the same substance?
A: 20.57 ± 1.65 s

Q: What about the “side effects compared with conotoxin (open field)” value ([7]; mouse, in vivo, ip) of the same substance?
A: lower side effects

Q: And the “various indexes in open field experiments compared with the normal saline group” value ([7]; mouse, in vivo, ip)?
A: no significant difference

Q: And the “Movement duration of mice in forced swimming tests” value (from here on “Movement duration of mice”) ([8]; 1 h)?
A: 20.39 ± 1.21^ s

Q: What about the “Movement duration of mice” value ([8]; 24 h) of the same substance?
A: 18.99 ± 1.48 s

Q: What about the “Movement duration of mice” value ([8]; Time 0) of the same substance?
A: 20.57 ± 1.65 s

Q: And the “toxic side effects compared with the conotoxin (forced swimming)” value ([8]; mouse, in vivo, ip)?
A: lower toxic side effects

Q: What about the “Duration of the immobility of mice in tail suspension tests” value (“Duration of the immobility of mice” below) ([9]; 1 h) of the same substance?
A: 20.39 ± 1.21^ s

Q: What about the “Duration of the immobility of mice” value ([9]; 24 h) of the same substance?
A: 18.99 ± 1.48 s

Q: What about the “Duration of the immobility of mice” value ([9]; Time 0) of the same substance?
A: 20.57 ± 1.65 s

Q: And the “data of tail suspension test compared with the normal saline group” value ([9]; mouse, in vivo, ip)?
A: no significant difference

Q: What about the “toxic side effects compared with the conotoxin (tail suspension)” value ([9]; mouse, in vivo, ip) of the same substance?
A: lower toxic side effects
